Experimental data as given in US9561168B2, “Oral care compositions” (Colgate-Palmolive Company, priority 2011, dated 2017).

How the values were obtained:
[1] = antimicrobial agents currently in use in oral formulations; organism not stated; cited from earlier work
Actinomyces viscosus = test: Minimum inhibitory concentration (MIC) against Actinomyces viscosus; format: cell-based
Description: (§1) Mixed species bacteria are grown as follows: Actinomyces viscosus (ATCC #31346) is grown in trypticase soy broth supplemented with 0.6% yeast extract (TSB-YE) at 37° C., static culture. For mixed species assays, the source of bacteria is a continuous culture chemostat inoculated with A. viscosus, Lactobacillus casei (ATCC #334), Streptococcus oralis (ATCC #35037), Fusobacterium nucleatum (ATCC #10953), and Veilonella parvula (ATCC #17745). This mixed culture is maintained in a specialized complex medium in a continuous culture chemostat at 37° C.
Gallium nitrate is assessed in oral biofilm models. […] The advantage of gallium over other agents is that it appears to target the relatively starved bacteria found deeper in the biofilms that are usually less accessible to traditional antimicrobial agents.

[2] = tested on: other oral bacterial species tested; test: Antimicrobial activity against other oral bacterial species; format: cell-based; conditions: any other oral bacterial species tested (other than A. viscosus)
[3] = tested on: single species Actinomyces viscosus biofilms; test: Inhibition of single species Actinomyces viscosus biofilm formation; format: cell-based; conditions: single species A. viscosus biofilm
Description: as §1

[4] = tested on: five species biofilm (A. viscosus, Lactobacillus casei, Streptococcus oralis, Fusobacterium nucleatum, Veilonella parvula); test: Mixed (five) species biofilm test on saliva-coated HAP disks; format: cell-based; conditions: 250 ppm of ε-polylysine
Description: Mixed species biofilms are preformed on saliva-coated HAP disks (scHAP). Following saliva coating, disks are inoculated with 1 ml of mixed species culture from the continuous culture chemostat described above diluted to an OD610 of ˜0.2 in 0.5×TSB. Plates are incubated for 48 h at 37° C. to allow biofilms to form.
Disks containing preformed biofilms are transferred to a fresh 24-well culture plate and 1 ml of sterile 0.5×TSB medium containing the indicted concentration of test compound is added to each disk. Plates are incubated for 1 h at 37° C. with gentle agitation. […] Plates are sonicated for 2 min to pellet any residual HAP and supernatants are removed to fresh plates so that absorbance could be read at 610 nm.
All samples are tested in triplicate and the average of the three wells determined.

Row | Molecule | MTC values [1] | minimum inhibitory concentration (MIC) (Actinomyces viscosus) | antimicrobial activity against other oral bacterial species [2] | concentration able to inhibit formation of single species biofilms [3] | inhibition of multispecies biofilm formation [4]
1 | Oc1cc(Cl)ccc1Oc1ccc(Cl)cc1Cl [triclosan] | less than 10 ppm |  |  |  | 
2 | ε-Polylysine |  | < 1 ppm | does not have antimicrobial activity | < 1 ppm | less than 20%
3 | O=[N+]([O-])[O-].O=[N+]([O-])[O-].O=[N+]([O-])[O-].[Ga+3] [gallium nitrate] |  | approximately 60 ppm |  | 30 ppm | 
